In PMC11858653, “Design, Synthesis and Bioactive Evaluation of Topo I/c-MYC Dual Inhibitors to Inhibit Oral Cancer via Regulating the PI3K/AKT/NF-κB Signaling Pathway” (Molecules, 2025):

Columns and labels:
Assay type in all cases: cell-based, human
ACHN = assay: MTT antiproliferative assay, ACHN; details: Homo sapiens, ACHN, 48 h, mean ± SD
Cal27 cells [1] = assay: Colony formation assay; details: Cal27, tested 0.5, 1, 1.5 μM
Procedure: The colony formation assay was used to evaluate the antiproliferative effect of compound 7be on Cal27 cells. Cal27 cells were grown in 6-well plates at a density of 700 cells per well and then treated with different concentrations of compound 7be for 48 h. The treatment medium was removed and fresh medium was added. After 2 weeks of culture, cells were fixed with 4% paraformaldehyde for 8 min and stained with crystal violet solution (10%). Finally, they were imaged with a camera.

MGC-803 = assay: MTT antiproliferative assay, MGC-803; details: Homo sapiens, MGC-803, 48 h, mean ± SD
[2] = tested on: Bax, Bcl-2, Cleaved PARP1/PARP1 in Cal27 cells; assay: Western blot of apoptosis-related proteins
Procedure: (§1) After Cal27 cells had been treated with the desired concentration of each drug for 24 h, the cells were collected and the total protein was extracted. The cells were then separated on a gel of appropriate concentration and transferred to a PVDF membrane. After blocking with milk, the membrane was incubated with primary antibody at 4 °C overnight. Subsequently, the membrane was incubated with horseradish peroxidase-coupled secondary antibody for 2 h. Finally, the protein bands were used to detect the immunoreactive signal using an enhanced chemiluminescence kit.

c-MYC = assay: RT-qPCR of c-MYC transcription in Cal27 cells; details: Cal27, 24 h
Procedure: Cal27 cells were plated in a 6-well plate and incubated for 12 h at 37 °C in a humidified atmosphere with 5% CO2, then compound 7be was added at final concentrations of 1 μM, 2 μM, 3 μM and 4 μM. After incubation for 24 h, cells were harvested, and the RNA was extracted according to the manufacturer’s instructions. Total RNA was used as a template for reverse transcription. The cDNA was obtained and applied directly for further qPCR. According to the manufacturer’s protocol, the real-time PCR was performed on a real-time PCR apparatus. The total volume of 20 μL of quantitative reaction mixtures contained 10 μL of SYBR Green qPCR Mix, 0.4 μL PCR Forward Primer (10 μM), 0.4 μL PCR Reverse Primer (10 μM) and 2 μL of cDNA (Table S4). The c-MYC mRNA levels were normalized to the GAPDH mRNA level of each sample. Results of real-time PCR were analyzed using the 2^−ΔCt method.

Cal27 = assay: MTT antiproliferative assay, Cal27; details: Homo sapiens, CAL-27, 48 h, mean ± SD
NCI-H460 = assay: MTT antiproliferative assay, NCI-H460; details: Homo sapiens, NCI-H460, 48 h, mean ± SD
Cal27 cells [3] = assay: Cell cycle analysis by flow cytometry; details: Cal27, 4 μM, 24 h
Procedure: Cal27 cells were treated with compound 7be for 24 h. Next, Cal27 cells were collected and suspended in ice ethanol at 4 °C for at least 24 h. Subsequently, Cal27 cells were incubated in RNase A and PI staining solution at 37 °C, protected from light, for 0.5 h. Finally, cells were detected by flow cytometry.

A549 = assay: MTT antiproliferative assay, A549; details: Homo sapiens, A549, 48 h, mean ± SD
[4] = tested on: LC3, p62, Beclin-1 in Cal27 cells; assay: Western blot of autophagy-related markers
Procedure: In addition, in order to further clarify the potential mechanism of autophagy induced by compound 7be, Western blot analysis was used to detect the expression of autophagy-related markers, including microtubule-associated protein 1 light chain protein-3 protein (LC3), p62 and Beclin-1. In the process of autophagy, LC3 is essential for the maturation of the autophagosome and its fusion with the lysosome.
as §1

## Cc1cc(C)c2c(n1)S(=O)(=O)c1c-2nc(NCCN2CCCCC2)c2ccccc12 [7be, 7,9-Dimethyl-5-((2-(piperidin-1-yl)ethyl)amino) pyrido[3′,2′:4,5]thieno[3,2-c]isoquinoline 11,11-dioxide]
ACHN
  IC50: 3.25 ± 1.59 µM
Cal27 cells [1]
  concentration completely suppressing colony formation ability: 1.5 µM
MGC-803
  IC50: 1.69 ± 0.24 µM
[2]
  Cleaved PARP1/PARP1: up-regulated
  anti-apoptotic protein Bcl-2: down-regulated
  pro-apoptotic protein Bax: up-regulated
c-MYC
  concentration needed to significantly inhibit the transcription of c-MYC: 8 µM
Cal27
  IC50: 1.12 ± 0.22 µM
NCI-H460
  IC50: 2.92 ± 0.56 µM
Cal27 cells [3]
  cells in S: 54.06%
A549
  IC50: 3.32 ± 1.9 µM
[4]
  expression of autophagy biomarkers Beclin-1 and LC3-II: upregulated
  expression of p62: decreased
